The numbers were not newly measured in patent publication US20110165699A1 (priority 2009, published 2011), which cites them from elsewhere.

Turning to `CCc1c2c(nc3ccc(O)cc13)-c1cc3c(c(=O)n1C2)COC(=O)[C@]3(O)CC` [SN-38, 7-ethyl-10-hydroxy-camptotheen], the “inter-patient variability, CV in AUCs” value (Sasaki, Jpn. J. Cancer 1995) is 38.91%. Further, the “intra- and inter-individual pharmacokinetic variability” value (has been reported) is “more than 40 fold”.
